Experimental data: ChEMBL document CHEMBL1201862, “PubChem BioAssay data set” (2004)
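Exposure lasted 48 hours, with cells grown in 96-well plates and compounds tested at five concentrations. GI50 marks 50% less growth.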 The source made the active and inactive calls. No stated cut-off is given here; in the data, active = GI50 up to about 1.1 µM and inactive = higher.

Columns and labels:
Experiment in all cases: inhibition of tumour cell growth, NCI panel, 48 h
[1] = test system: 786-0
[2] = test system: A498
[3] = test system: ACHN
[4] = test system: HCT-15
[5] = test system: IGROV-1
[6] = test system: MOLT-4
[7] = test system: Malme-3M
[8] = test system: NCI-H226
[9] = test system: NCI-H23
[10] = test system: NCI-H522
[11] = test system: RXF 393
[12] = test system: SF-539
[13] = test system: SK-MEL-28
[14] = test system: SN12C
[15] = test system: SNB-19
[16] = test system: UACC-62
[17] = test system: UO-31
[18] = test system: MCF7
[19] = test system: MDA-MB-435

Row | SMILES | GI50 [1] | GI50 [2] | GI50 [3] | GI50 [4] | GI50 [5] | GI50 [6] | GI50 [7] | GI50 [8] | GI50 [9] | GI50 [10] | GI50 [11] | GI50 [12] | GI50 [13] | GI50 [14] | GI50 [15] | GI50 [16] | GI50 [17] | GI50 [18] | GI50 [19]
1 | COc1cc([C@@H]2c3cc4c(cc3[C@@H](NC(=O)c3cccc(C#N)c3)C3COC(=O)[C@@H]32)OCO4)cc(OC)c1O (some centres undefined) | 0.703 µM (active) | 1.26 µM (inactive) | 0.182 µM (active) | 3.81 µM | 1.05 µM (active) | 15.1 µM (inactive) | 0.65 µM (active) | 0.0671 µM (active) | 0.214 µM (active) | 0.908 µM (active) | 3.18 µM (inactive) | 0.141 µM (active) | 2.92 µM (inactive) | 0.229 µM (active) | 0.404 µM (active) | 0.308 µM (active) | 5.47 µM (inactive) | – | –
2 | [O-][Cl+3]([O-])([O-])[O-].c1ccc(-c2[o+]c(-c3ccccc3)c(-c3ccccc3)c(-c3ccccc3)c2-c2ccccc2)cc1 | > 100 µM (inactive) | > 100 µM (inactive) | > 100 µM (inactive) | > 100 µM | > 100 µM (inactive) | 44.7 µM (inactive) | > 100 µM (inactive) | > 100 µM (inactive) | > 100 µM (inactive) | > 100 µM (inactive) | 12 µM (inactive) | > 100 µM (inactive) | > 100 µM (inactive) | > 100 µM (inactive) | – | > 100 µM (inactive) | > 100 µM (inactive) | – | –
3 | O=C1CCCc2ccc3c(c21)CC1(Cc2cc4c(cc2C1)CCCC4)C3 | 18.1 µM (inactive) | 37.6 µM (inactive) | 16.1 µM (inactive) | 19.4 µM | 24.7 µM (inactive) | 14.8 µM (inactive) | 18.3 µM (inactive) | 17.4 µM (inactive) | 18.2 µM (inactive) | 17.3 µM (inactive) | 15.6 µM (inactive) | 20.3 µM (inactive) | 24.9 µM (inactive) | 19.1 µM (inactive) | 26.6 µM (inactive) | 20.3 µM (inactive) | 15.7 µM (inactive) | 17.5 µM (inactive) | 19.6 µM (inactive)
4 | CN(C(=O)c1ccc([N+](=O)[O-])cc1)c1ccccc1 | > 100 µM (inactive) | > 100 µM (inactive) | > 100 µM (inactive) | > 100 µM | > 100 µM (inactive) | > 100 µM (inactive) | > 100 µM (inactive) | > 100 µM (inactive) | > 100 µM (inactive) | > 100 µM (inactive) | 21.6 µM (inactive) | > 100 µM (inactive) | > 100 µM (inactive) | > 100 µM (inactive) | > 100 µM (inactive) | > 10 µM (inactive) | > 100 µM (inactive) | – | –
